In patent publication US11925622B2, “Role of novel carbazole linked 1, 2, 3- triazole analogs in alleviating methylglyoxal-mediated late diabetic vascular complications” (priority 2021, dated 2024):
Structures can show the parent of a compound that is named as a salt.

Tests used:
[1] = system: MGO-mediated BSA glycation; assay: In vitro antiglycation activity, MGO-BSA glycation assay (fluorescence); type: biochemical, bovine; settings: for IC50 / % inhibition of MGO-BSA glycation: BSA 10 mg/mL, MGO 0.1 M, 24 h, 37° C.; for IC50: read-out: IC50 antiglycation, MGO-BSA model; for % inhibition of MGO-BSA glycation: compounds at 1 mM
Procedure: In vitro antiglycation activity: The MGO-BSA assay was performed as per optimized protocol of Jahan, H. et al with slight modifications. Initially, the antiglycation activity of parent compound carbazole (1), and carbazole-linked 1,2,3 triazoles 2-16 were identified at 1 mM using MGO-BSA model. […] BSA (10 mg/mL) incubated with MGO (0.1 M) for 24 h at 37° C. using phosphate-azide buffer (0.1 mM), served as a positive control. The wells with BSA only were taken as negative control. Whereas, rutin and quercetin were used as standard antiglycation agents. After 24 h of incubation, the fluorescence of each well was measured by using microplate reader (Varioskan lux, Thermo Fisher Scientific, 319 Scientific, USA) at 355 nm excitation, and 460 nm emission.
The % inhibition of MGO-BSA-mediated by carbazole-triazole derivatives was quantified by using the following formula: […]
The IC50 of active antiglycation compounds were identified by using EZ-FIT Enzyme Kinetics Program (Perrella Scientific Inc., Amherst, USA).

[2] = system: MGO-AGEs-induced ROS in THP-1 monocytes; assay: Anti-oxidation activity, DCFH-DA assay of MGO-AGEs-mediated ROS in monocytes; type: cell-based, human; settings: for ROS (DCF fluorescence) in MGO-AGEs-treated monocytes: 100 μM (maximum inhibition), MGO-AGEs 50 μg/mL, 24 h
Procedure: Anti-oxidation activity: The measurement of effect of derivatives on AGEs-mediated ROS was based on the previously reported protocol of Soumyarani and colleagues with slight amendments. Initially, 1×10^6 monocytes/mL were loaded in sterile 96-well flat bottom black fluorescent plate, and pre-incubated with DCFH-DA (10 μM; Sigma-Aldrich Chemical Corporation, St. Louis, Missouri, USA) for 45 min at 37° C. Followed by the incubation, antiglycating, non-toxic carbazole-linked triazole derivatives (10, 30, 50, and 100 μM) were added to the wells for 1 h before co-treatment of cells with MGO-AGEs (50 μg/mL) for next 24 h. Next, the fluorometric measurement of converted DCFH into oxidized DCF product was carried out via spectrofluorimeter (Varioskanmicroplate reader, Thermo Fisher Scientific, USA) using 485 nm excitation and 520 nm emission wavelengths. Various controls were plated in each experiment. Wells containing culture RPMI with MGO-AGEs (50 μg/mL) and H2O2 ([…]) served as positive controls, while cells containing BSA were taken as negative control.

THP-1 cell line = assay: Cytotoxicity, WST-1 assay in human monocytes; type: cell-based; settings: 24 h
Procedure: (§1) Cytotoxicity analysis: The cytotoxic profile of the compounds was determined by using the MTT assay in hepatocytes (HepG2 cell line), and WST-1 assay in human monocytes (THP-1 cell line) as per the manufacturer's protocols. […] Doxorubicin treated cells were used as a positive control, while cells with culture medium served as negative control. Wells with culture medium served as a blank. Followed by the incubation, 20 μL of MTT were added in each well. […] The absorbance was measured by using 540, and 450 nm, respectively ([…] reader, Thermo Fisher, 319 Scientific, USA).

HepG2 cell line = assay: Cytotoxicity, MTT assay in hepatocytes; type: cell-based, human; settings: 24 h
Procedure: as §1

O=C(Cn1cc(Cn2c3ccccc3c3ccccc32)nn1)c1ccccc1 [Compound 2, 2-(4-((9H-Carbazole-9-yl)methyl)-1H-1,2,3-triazole-1-y1)-1-phenylethan-1-one]
antiglycation activity in MGO-BSA model (in words) [1]: weak potential | IC50 [1]: 797 ± 7 µM | % inhibition of MGO-BSA glycation [1]: 58% | antioxidant activity / ROS production inhibition (in words) ([2]; MGO-AGEs 50 μg/mL-treated THP-1 monocytes): inactive

Cc1ccccc1C(=O)Cn1cc(Cn2c3ccccc3c3ccccc32)nn1 [Compound 7, 2-(4-((9H-Carbazole-9-yl)methyl)-1H-1,2,3-triazole-1-y1)-1-(o-tolyl)ethan-1-one]
antiglycation activity in MGO-BSA model (in words) [1]: good activity | IC50 [1]: 275 ± 5 µM | % inhibition of MGO-BSA glycation [1]: 72% | % Inhibition ± SD THP-1 (THP-1 cell line; 1 μM): 21 ± 8.8% | % Inhibition ± SD THP-1 (THP-1 cell line; 10 μM): 27 ± 4.2% | % Inhibition ± SD THP-1 (THP-1 cell line; 30 μM): 34.6 ± 6.5% | % Inhibition ± SD THP-1 (THP-1 cell line; 50 μM): 32.1 ± 0.4% | % Inhibition ± SD THP-1 (THP-1 cell line; 100 μM): 50.7 ± 5.3% | % Inhibition ± SD THP-1 (THP-1 cell line; 250 μM): 80.8 ± 5.1% | % Inhibition ± SD THP-1 (THP-1 cell line; 500 μM): 79.5 ± 5.8% | % Inhibition ± SD Hep-G2 (HepG2 cell line; 1 μM): 12.3 ± 3.7% | % Inhibition ± SD Hep-G2 (HepG2 cell line; 10 μM): 21.8 ± 4.7% | % Inhibition ± SD Hep-G2 (HepG2 cell line; 30 μM): 21.8 ± 1.5% | % Inhibition ± SD Hep-G2 (HepG2 cell line; 50 μM): 41.1 ± 3.5% | % Inhibition ± SD Hep-G2 (HepG2 cell line; 100 μM): 50.3 ± 3.9% | % Inhibition ± SD Hep-G2 (HepG2 cell line; 250 μM): 59.8 ± 15.5% | % Inhibition ± SD Hep-G2 (HepG2 cell line; 500 μM): 78.4 ± 2.2%

Cc1cccc(C(=O)Cn2cc(Cn3c4ccccc4c4ccccc43)nn2)c1 [Compound 8, 2-(4-((9H-Carbazole-9-yl)methyl)-1H-1,2,3-triazole-1-y1)-1-(m-tolyl)ethan-1-one]
antiglycation activity in MGO-BSA model (in words) [1]: good activity | IC50 [1]: 130 ± 10 µM | % inhibition of MGO-BSA glycation [1]: 79% | % Inhibition ± SD THP-1 (THP-1 cell line; 1 μM): 35.5 ± 1.1% | % Inhibition ± SD THP-1 (THP-1 cell line; 10 μM): 42.1 ± 0.4% | % Inhibition ± SD THP-1 (THP-1 cell line; 30 μM): 43 ± 4.3% | % Inhibition ± SD THP-1 (THP-1 cell line; 50 μM): 43.9 ± 0.7% | % Inhibition ± SD THP-1 (THP-1 cell line; 100 μM): 46.7 ± 2.0% | % Inhibition ± SD THP-1 (THP-1 cell line; 250 μM): 73.6 ± 1.9% | % Inhibition ± SD THP-1 (THP-1 cell line; 500 μM): 99.5 ± 0.3% | % Inhibition ± SD Hep-G2 (HepG2 cell line; 1 μM): 6.4 ± 2.2% | % Inhibition ± SD Hep-G2 (HepG2 cell line; 10 μM): 8.7 ± 4.8% | % Inhibition ± SD Hep-G2 (HepG2 cell line; 30 μM): 47.3 ± 2.2% | % Inhibition ± SD Hep-G2 (HepG2 cell line; 50 μM): 54.5 ± 0.7% | % Inhibition ± SD Hep-G2 (HepG2 cell line; 100 μM): 66.9 ± 1.9% | % Inhibition ± SD Hep-G2 (HepG2 cell line; 250 μM): 74.1 ± 1.9% | % Inhibition ± SD Hep-G2 (HepG2 cell line; 500 μM): 86.7 ± 5.8%

O=C(Cn1cc(Cn2c3ccccc3c3ccccc32)nn1)c1cccc([N+](=O)[O-])c1 [Compound 11, 2-(4-((9H-Carbazole-9-yl)methyl)-1H-1,2,3-triazole-1-y1)-1-(3-nitrophenyl)ethan-1-one]
antiglycation activity in MGO-BSA model (in words) [1]: good activity | IC50 [1]: 147 ± 10 µM | % inhibition of MGO-BSA glycation [1]: 75.7% | ROS (DCF fluorescence) in MGO-AGEs-treated monocytes [2]: 9.06 RFU

c1ccc2c(c1)c1ccccc1n2Cc1cn(Cc2ccc(Cn3cc(Cn4c5ccccc5c5ccccc54)nn3)cc2)nn1 [Compound 15, 1,4-Bis ((4-((9H-carbazol-9-yl)methyl)-1H-1,2,3-triazol-1yl)methyl) benzene]
antiglycation activity in MGO-BSA model (in words) [1]: good activity | IC50 [1]: 333 ± 10 µM | % inhibition of MGO-BSA glycation [1]: 71% | ROS (DCF fluorescence) in MGO-AGEs-treated monocytes [2]: 10.6 RFU

COc1cccc2c1C(=O)c1c(O)c3c(c(O)c1C2=O)C[C@@](O)(C(=O)CO)C[C@@H]3OC1C[C@H](N)[C@H](O)[C@H](C)O1 (stereo partly drawn) [Doxorubicin, (7S,9S)-7-[(4S,5S,6S)-4-amino-5-hydroxy-6-methyloxan-2-yl]oxy-6,9,11-trihydroxy-9-(2-hydroxyacetyl)-4-methoxy-8,10-dihydro-7H-tetracene-5,12-dione; hydrochlorid, reference compound]
inhibition at 1 µM (THP-1 cell line; Homo sapiens, THP-1, 1 μM, read-out: % Inhibition ± SD THP-1): 34.2% | inhibition at 10 µM (THP-1 cell line; Homo sapiens, THP-1, 10 μM, read-out: % Inhibition ± SD THP-1): 60.2 ± 0.6% | inhibition at 30 µM (THP-1 cell line; Homo sapiens, THP-1, 30 μM, read-out: % Inhibition ± SD THP-1): 63.2 ± 0.4% | inhibition at 50 µM (THP-1 cell line; Homo sapiens, THP-1, 50 μM, read-out: % Inhibition ± SD THP-1): 64.5 ± 2.4% | inhibition at 100 µM (THP-1 cell line; Homo sapiens, THP-1, 100 μM, read-out: % Inhibition ± SD THP-1): 67.3 ± 0.2% | inhibition at 250 µM (THP-1 cell line; Homo sapiens, THP-1, 250 μM, read-out: % Inhibition ± SD THP-1): 76.4 ± 10% | inhibition at 500 µM (THP-1 cell line; Homo sapiens, THP-1, 500 μM, read-out: % Inhibition ± SD THP-1): 94.3 ± 2.3% | inhibition at 1 µM (HepG2 cell line; Homo sapiens, HepG2, 1 μM, read-out: % Inhibition ± SD Hep-G2): 30.4 ± 5.3% | inhibition at 10 µM (HepG2 cell line; Homo sapiens, HepG2, 10 μM, read-out: % Inhibition ± SD Hep-G2): 28.3 ± 4.8% | inhibition at 30 µM (HepG2 cell line; Homo sapiens, HepG2, 30 μM, read-out: % Inhibition ± SD Hep-G2): 64 ± 0.4% | inhibition at 50 µM (HepG2 cell line; Homo sapiens, HepG2, 50 μM, read-out: % Inhibition ± SD Hep-G2): 58 ± 2.4% | inhibition at 100 µM (HepG2 cell line; Homo sapiens, HepG2, 100 μM, read-out: % Inhibition ± SD Hep-G2): 62.6 ± 0.2% | inhibition at 250 µM (HepG2 cell line; Homo sapiens, HepG2, 250 μM, read-out: % Inhibition ± SD Hep-G2): 69.8 ± 10% | inhibition at 500 µM (HepG2 cell line; Homo sapiens, HepG2, 500 μM, read-out: % Inhibition ± SD Hep-G2): 87.1 ± 2.2%

c1ccc2c(c1)[nH]c1ccccc12 [carbazole]
% inhibition of MGO-BSA glycation [1]: 36.7%
